Reference: US9725432B2, “Pyrimidine derivatives for the treatment of bacterial diseases” (JANSSEN R&D IRELAND, priority 2012, dated 2017)
≈ marks a conversion by molar mass, not a printed value.

How the values were obtained:
[1] = test system: Staphylococcus aureus; assay: MIC determination of compounds on ECO/PAE/STA in microplates; format: cell-based; conditions: lowest concentration with no growth (90% inhibition of growth), 18-20 hours at 37° C., visual, strain not given
[2] = test system: Staphylococcus aureus; assay: Antibacterial susceptibility testing: IC90 determination (broth microdilution, resazurin fluorescence); format: cell-based; conditions: 90% inhibitory concentration for bacterial growth, Mueller Hinton broth, 35° C., 16-20 hours, strain not given
Protocol: Preparation of Bacterial Suspensions for Susceptibility Testing
The following bacteria were used: Staphylococcus aureus ATCC 29213, methicillin-resistant Staphylococcus aureus (MRSA) ATCC 700788 and Escherichia coli ATCC 35218. The bacteria used in this study were grown overnight in flasks containing 100 ml Mueller-Hinton broth (Difco cat. nr. 0757-17) in sterile de-ionized water, with shaking, at 37° C. Stocks were store at −70° C. until use.
Bacteria were incubated on a tryptic soy agar plate containing 5% sheep blood (Becton Dickinson cat. nr. 254053) for 18-24 hours at 35° C. in aerobic conditions (first passage). For the second passage, fresh Mueller-Hinton broth is inoculated with 5-10 colonies and grown overnight at 35° C. until turbidity (reaching log-phase) in aerobic conditions is reached. The bacterial suspension is then adjusted to 0.5 McFarland density and further diluted 1:100 in Mueller Hinton broth medium. This is used as inoculum.
Antibacterial Susceptibility Testing: IC90 Determination
MIC assays were performed by the broth microdilution method in a 96-well format (flat-bottom microtitre plates) with a final volume of 0.1 ml Mueller Hinton broth containing two-fold serial dilutions of compounds and inoculated with 5×10^5 CFU/ml of bacteria (standard inoculum size according to CLSI guidelines). Inhibitors are typically varied over the range of 63 to 0.49 μM. The final DMSO concentration in the assay was 1.25% (maximum tolerable DMSO concentration=6%). In the assays where the effect of human serum on the activity of the compounds against S. aureus was tested, human serum was added at a final concentration of 10%. The plates were incubated at 35° C. for 16-20 hours. At the end of incubation the bacterial growth was quantified fluorometrically. For this, resazurin was added to all wells and the plates were re-incubated. The incubation time is dependent on the type of bacteria. A change in color from blue to pink indicated the growth of bacteria. The fluorescence was read in computer-controlled fluorometer (Fluoroskan Ascent FL, Labsystems) at an excitation wavelength 540 nm and an emission wavelength of 590 nm. The % growth inhibition achieved by the compounds was calculated according to standard methods. The IC90 (expressed in μg/ml) was defined as the 90% inhibitory concentration for bacterial growth. A panel of reference compounds were simultaneously tested for QC approval.

[3] = Cytotoxicity MTT assay; format: cell-based; conditions: human, HelaM cells, concentration that causes 50% reduction in cell viability
Protocol: Cytotoxicity of the compounds was evaluated using the MTT assay. Human HelaM cells grown in 96-well plates were exposed to serial dilutions of the tested compounds (final volume of 0.2 ml) and incubated for 72 hours at 37° C. and 5% CO2 Inhibitors are typically varied over the range of 25 to 0.8 μM. The final DMSO concentration in the assay is 0.5%. MTT (3-(4,5-Dimethylthiazol-2-yl)-2,5-diphenyltetrazolium bromide, a tetrazole) was added and reduced to purple formazan only in living cells. Solubilization of the formazan crystals was achieved by adding 100 μl 2-propanol. Cell viability was determined by measuring the absorbance of the reduced formazan, giving a purple color, at 540 nm and 690 nm. The absorbance measured at 690 nm was automatically subtracted from the absorbance at 540 nm, to eliminate the effects of non-specific absorption. The percent cytotoxicity achieved by the compounds was calculated according to standard methods. Cytotoxicity is reported as CC50, the concentration that causes a 50% reduction in cell viability.

| SMILES | melting point [°C] | MIC90 [1] [µg/mL] | IC90 [2] [µg/mL] | CC50 at 72 h [3] [µg/mL] |
| --- | --- | --- | --- | --- |
| COc1cccc(-c2cnc(-c3ccncc3)nc2C2CCN(Cc3ccc(C#N)cc3)CC2)c1 [Compound 34] | 168 |  | 6.99 (≈ 15.1 µM) | 8.7 (≈ 18.8 µM) |
| COc1cccc(-c2cnc(-c3ccncc3)nc2N2CCC(c3ccccc3)CC2)c1 [Compound 26] | 157 to 159 |  | 7.51 (≈ 17.8 µM) | 5.7 (≈ 13.5 µM) |
| COc1cccc(-c2cnc(-c3ccncc3)nc2C2CCN(Cc3cc(Cl)ccc3O)CC2)c1 [Compound 5] | 227 to 228 |  | 2.1 (≈ 4.31 µM) | 6.3 (≈ 12.9 µM) |
| COc1cccc(-c2cnc(-c3ccncc3)nc2C2CCN(Cc3ccccc3)CC2)c1 [Compound 16] | 174 |  | 6.92 (≈ 15.9 µM) | > 11 |
| CC(C)(C)CN1CCC(c2nc(-c3ccc(C#N)cc3)ncc2-c2cccc(C#N)c2)CC1 [Compound 65] | 247 to 249 |  | 0.13 (≈ 0.298 µM) | > 4.4 |
| Cc1ccc(-c2cnc(-c3ccncc3)nc2C2CCN(CC(C)(C)C)CC2)cc1 [Compound 38] | 170 to 171 |  | 5.04 (≈ 12.6 µM) | > 4 |
| N#Cc1cccc(-c2cnc(-c3ccncc3)nc2C2CCN(CC(F)(F)F)CC2)c1 [Compound 58] | 168 to 172 |  | 0.69 (≈ 1.63 µM) | > 10.6 |
| COc1cccc(-c2cnc(-c3ccncc3)nc2C2CCN(Cc3ccco3)CC2)c1 [Compound 18] | 120 |  | 13 (≈ 30.5 µM) | > 10.7 |
| COc1cccc(-c2cnc(-c3ccncc3)nc2C2CCN(CC(C)C)CC2)c1 [Compound 11] | 105 to 106 |  | 5.49 (≈ 13.6 µM) | > 10.1 |
| COc1cccc(-c2cnc(-c3ccncc3)nc2C2CCN(Cc3ccc(C)cc3)CC2)c1 [Compound 35] | 141 |  | 13.3 (≈ 29.5 µM) | 7.7 (≈ 17.1 µM) |
| COc1cccc(-c2cnc(-c3ccncc3)nc2C2CCN(Cc3ccccc3F)CC2)c1 [Compound 41] | 139 |  | 8.66 (≈ 19.1 µM) | 7.7 (≈ 16.9 µM) |
| COc1cccc(-c2cnc(-c3ccncc3)nc2C2CCN(Cc3cccc(C)c3)CC2)c1 [Compound 33] | 160 |  | 13.2 (≈ 29.2 µM) | 7.6 (≈ 16.9 µM) |
| COc1cccc(-c2cnc(-c3ccncc3)nc2N2CCN(CC(C)(C)C)CC2)c1 [Compound 21] | 117 to 120 |  | 0.39 (≈ 0.934 µM) | 5.9 (≈ 14.1 µM) |
| COc1cccc(-c2cnc(-c3ccncc3)nc2C2CCN(Cc3cccc(Cl)c3)CC2)c1 [Compound 45] | 133 |  | 3.49 (≈ 7.41 µM) | 4.9 (≈ 10.4 µM) |
| COc1cccc(-c2cnc(-c3ccncc3)nc2C2CCN(CC(C)(C)C)CC2)c1 [Compound 6] | 118 |  | 1.05 (≈ 2.52 µM) | > 10.5 |
| COc1cccc(-c2cnc(-c3ccncc3)nc2C2CCN(Cc3cc(F)cc(F)c3)CC2)c1 [Compound 48] | 181 |  | 3.16 (≈ 6.69 µM) | 2.2 (≈ 4.66 µM) |
| Cc1cccc(-c2cnc(-c3ccncc3)nc2C2CCN(Cc3cc(Cl)ccc3O)CC2)c1 [Compound 13] | 180 to 181 |  | 1.71 (≈ 3.63 µM) | 5.2 (≈ 11 µM) |
| COc1ccc(-c2ncc(-c3cccc(C#N)c3)c(C3CCN(CC(C)(C)C)CC3)n2)cn1 [Compound 67] | 144 to 145 |  | 0.81 (≈ 1.83 µM) | > 11.1 |
| COc1cccc(-c2cnc(-c3ccncc3)nc2C2CCN(Cc3ccc(Cl)cc3)CC2)c1 [Compound 44] | 131 |  | 2.23 (≈ 4.73 µM) | 7 (≈ 14.9 µM) |
| COc1cccc(-c2cnc(-c3ccncc3)nc2C2CCN(Cc3cccs3)CC2)c1 [Compound 19] | 130 |  | 5.57 (≈ 12.6 µM) | > 11.1 |
| COc1ccc(-c2cnc(-c3ccncc3)nc2C2CCN(CC(C)(C)C)CC2)cc1 [Compound 36] | 154 to 156 |  | 2.98 (≈ 7.15 µM) | > 10.5 |
| Cc1cccc(-c2cnc(-c3ccncc3)nc2C2CCN(CC(C)(C)C)CC2)c1 [Compound 15] | 123 to 127 |  | 1.49 (≈ 3.72 µM) | > 10.1 |
| COc1cccc(-c2cnc(-c3ccncc3)nc2C2CCN(C(=O)C(C)(C)C)CC2)c1 [Compound 25] | 165 |  | 3.27 (≈ 7.59 µM) | > 10.8 |
| N#Cc1cccc(-c2cnc(-c3cccnc3)nc2C2CCCN(CC(F)(F)F)C2)c1 (centres unmarked) [Compound 60] | 52 to 92 |  | > 26.7 | > 10.6 |
| COc1cccc(-c2cnc(-c3ccncc3)nc2NC2CCN(CC(C)(C)C)CC2)c1 [Compound 30] | 137 to 138 |  | 5.19 (≈ 12 µM) | 8.8 (≈ 20.4 µM) |
| COc1cccc(-c2cnc(-c3ccncc3)nc2C2CCN(Cc3cccc(C(F)(F)F)c3)CC2)c1 [Compound 28] | 156 |  | 5.28 (≈ 10.5 µM) | 4.7 (≈ 9.32 µM) |
| COc1cccc(-c2cnc(-c3cccnc3)nc2C2CCN(CC(C)(C)C)CC2)c1 [Compound 24] | 222 to 224 |  | 1.68 (≈ 4.03 µM) | > 11.4 |
| C#CCN1CCC(c2nc(-c3ccncc3)ncc2-c2cccc(OC)c2)CC1 [Compound 49] | 160 |  | 12.2 (≈ 31.6 µM) | > 9.7 |

Continued, in another order:

| melting point [°C] | MIC90 [1] [µg/mL] | IC90 [2] [µg/mL] | SMILES | CC50 at 72 h [3] [µg/mL] |
| --- | --- | --- | --- | --- |
| 119 | 0.125 (≈ 0.281 µM) |  | COc1cccc(-c2cnc(-c3ccc(F)cc3)nc2C2CCN(CC(C)(C)C#N)CC2)c1 [Compound 78] |  |
|  | > 64 |  | CC(C)(C)CNCCNc1nc(-c2ccncc2)ncc1-c1cccc(C#N)c1 [Compound 73] |  |
|  | 0.25 (≈ 0.506 µM) |  | COc1cccc(-c2cnc(-c3ccc(Br)cc3)nc2C2CCN(CC(C)(C)C)CC2)c1 [Compound 90] |  |
| 249 to 251 | 0.125 (≈ 0.279 µM) |  | N#Cc1ccc(-c2ncc(-c3cccc(C#N)c3)c(C3CCN(CC(F)(F)F)CC3)n2)cc1 [Compound 84] |  |
| 180 to 182 | 0.125 (≈ 0.276 µM) |  | COc1cccc(-c2cnc(-c3ccc(C#N)cc3)nc2C2CCN(CC(F)(F)F)CC2)c1 [Compound 83] |  |
| 171 | 0.125 (≈ 0.284 µM) |  | CC(C)(C#N)CN1CCC(c2nc(-c3ccc(F)cc3)ncc2-c2cccc(C#N)c2)CC1 [Compound 80] |  |
|  | 0.125 (≈ 0.277 µM) |  | C#Cc1ccc(-c2ncc(-c3cccc(OC)c3)c(C3CCN(CC(C)(C)C#N)CC3)n2)cc1 [Compound 92] |  |
| 101 to 122 | 2 (≈ 4 µM) |  | CC(C)(C#N)CN1CCC(c2nc(-c3ccc(S(C)(=O)=O)cc3)ncc2-c2cccc(C#N)c2)CC1 [Compound 87] |  |
| 155 to 164 | 0.125 (≈ 0.303 µM) |  | CC(C)(C)CN1CCN(c2nc(-c3ccncc3)ncc2-c2cccc(C#N)c2)CC1 [Compound 74] |  |
| 79 to 87 | 0.5 (≈ 1.18 µM) |  | CC(C)(C#N)CN1CCC(c2nc(-c3ccncc3)ncc2-c2cccc(C#N)c2)CC1 [Compound 75] |  |
|  | 0.125 (≈ 0.261 µM) |  | CC(C)(C)S(=O)(=O)N1CCC(c2nc(-c3ccc(F)cc3)ncc2-c2cccc(C#N)c2)CC1 [Compound 89] |  |
|  | 0.125 (≈ 0.247 µM) |  | COc1cccc(-c2cnc(-c3ccc(Br)cc3)nc2C2CCN(CC(C)(C)C#N)CC2)c1 [Compound 88] |  |
|  | 0.5 (≈ 1.14 µM) |  | C#Cc1ccc(-c2ncc(-c3cccc(OC)c3)c(C3CCN(CC(C)(C)C)CC3)n2)cc1 [Compound 91] |  |
|  | 0.125 (≈ 0.273 µM) |  | COc1cccc(-c2cnc(-c3ccc(OC)nc3)nc2C2CCN(CC(F)(F)F)CC2)c1 [Compound 79] |  |
|  | 0.125 (≈ 0.273 µM) |  | COc1cccc(-c2cnc(-c3ccc(OC)nc3)nc2C2CCN(CC(C)(C)C#N)CC2)c1 [Compound 81] |  |
|  | 0.125 (≈ 0.277 µM) |  | C#Cc1ccc(-c2ncc(-c3cccc(OC)c3)c(C3CCN(CC(F)(F)F)CC3)n2)cc1 [Compound 93] |  |
